According to EPA's ToxValDB 9.5 (doi:10.2903/j.efsa.2016.4493):

Legend:
[1] = test system: Coturnix japonica
[2] = test system: Mus musculus; conditions: acute; oral; mortality
[3] = test system: Oryctolagus sp.; conditions: developmental; development
[4] = test system: Rattus norvegicus
[5] = test system: Apis mellifera; conditions: acute, mortality
[6] = test system: Bibionidae; conditions: chronic/long-term; duration: 28 days; other
[7] = test system: Folsomia candida; conditions: chronic/long-term; duration: 4 weeks; reproduction
[8] = test system: Oncorhynchus mykiss
[9] = test system: Tagia sp.; conditions: mortality

## Oc1cccc2cccnc12 [8-Hydroxyquinoline]
[1]; acute, oral, diet, mortality
  LD50: > 1070 mg/kg-day
[1]; acute, oral, mortality
  LC50: 311 mg/kg-day
[1]; chronic
  NOAEL: 2.78 mg/kg-day
[2]
  LD50: 177 mg/kg-day
[3]
  NOAEL: 5 mg/kg-day
[4]; chronic, duration: 2 years, body weight
  NOAEL: 73 mg/kg-day
[4]; subchronic, duration: 90 days, oral, hematological
  NOAEL: 97.7 mg/kg-day

## O=S(=O)(O)O.Oc1cccc2cccnc12.Oc1cccc2cccnc12 [8-Hydroxyquinoline sulfate]
[5]; dermal
  LD50: > 100 µg/piece
[5]; oral, unspecified
  LD50: > 68.6 µg/piece
[6]
  NOEC: 167 mg/L
[7]
  NOEC: 52.4 mg/kg
[8]; acute, duration: 96 hours, mortality
  LC50: 2.68 µg/mL
[8]; chronic/long-term, duration: 28 days, development
  NOEC: 10.5 µg/L
[9]; acute, duration: 14 days
  LC50: > 409 mg/kg
[9]; chronic/long-term
  NOEC: 417 mg/kg
